From patent US4125707A, “Protected pseudotrisaccharide intermediate for paromomycin and neomycin derivatives” (Societa' Farmaceutici Italia S.p.A., priority 1974, dated 1978)
Values after ≈ are worked out from the molar mass of the structure shown. Where two headings read alike, the source gives them in different places.

Experiments:
Ochromonas malhamensis = assay: growth inhibition of Ochromonas malhamensis in liquid nutrient medium; format: cell-based
Experimental: (§1) Other tests were carried out on algae and protozoa in order to evaluate the sensitivity of eukaryotic organisms to this new molecule (determination of MIC in liquid nutrient medium).
(§2) (*)Dose inhibiting 50% of growth (.LAMBDA.) or of protein

[1] = test system: ribosomes from Saccharomyces cerevisiae (8OS); assay: inhibition of protein synthesis in cell-free system, 80S ribosomes; format: biochemical
Experimental: (§3) Finally, compound 224 was tested as an inhibitor of protein synthesis on cell-free systems containing ribosomes from Escherichia coli (7OS) or from Saccharomyces cerevisiae (8OS).
as §2

[2] = test system: ribosomes from Escherichia coli (7OS); assay: inhibition of protein synthesis in cell-free system, 70S ribosomes; format: biochemical; conditions: for Activity (ID 50%), dose inhibiting 50% of protein synthesis: cell-free system, 70S ribosomes
Experimental: as §3, §2

acute toxicity in mice = conditions: mouse, in vivo, sc, subcutaneous route
Experimental: There were also carried out comparative trials for determining the actue toxicity and ototoxicity. The LD50 values in mice by the subcutaneous route are: Aminosidine, 700 mg/kg; Compound 224, 1000 mg/kg.

[3] = test system: resistant strains (E. coli, Proteus sp.); assay: antibacterial activity on resistant strains; format: cell-based; conditions: for growth of resistant strains (in words): E. coli, Proteus sp., at concentrations at which 224 prevents growth
Experimental: (§4) The "in vitro" tests were carried out with the method of serial dilutions in liquid medium (Nutrient Broth Difco). The minimal inhibitory concentration (MIC) was determined after 24 h incubation at 37° C.
(§5) The resistance to the aminosidine is due, in the case of E. coli 526, to the production of an aminoglycoside inactivating enzyme (NKT I); the other strains are clinical isolates whose mechanism of resistance is not know.

algae and protozoa = assay: growth of algae and protozoa; format: cell-based; conditions: eukaryotic microorganisms, Table 2
Experimental: as §1

Staphilococcus aureus = assay: MIC, serial dilutions in liquid medium, Staphylococcus aureus; format: cell-based; conditions: 24 h
Experimental: as §4

Proteus sp.2 = assay: MIC, serial dilutions in liquid medium, Proteus sp.2; format: cell-based; conditions: 24 h
Experimental: as §4, §5

Klebsiella pneumoniae = assay: MIC, serial dilutions in liquid medium, Klebsiella pneumoniae; format: cell-based; conditions: 24 h
Experimental: as §4

Proteus sp.3 = assay: MIC, serial dilutions in liquid medium, Proteus sp.3; format: cell-based; conditions: 24 h, 37° C, Nutrient Broth Difco
Experimental: as §4, §5

Proteus sp.5 = assay: MIC, serial dilutions in liquid medium, Proteus sp.5; format: cell-based; conditions: 24 h
Experimental: as §4, §5

Tetrahymena geleei = assay: growth inhibition of Tetrahymena geleei in liquid nutrient medium; format: cell-based
Experimental: as §1, §2

Proteus sp.4 = assay: MIC, serial dilutions in liquid medium, Proteus sp.4; format: cell-based; conditions: 24 h, 37° C, Nutrient Broth Difco
Experimental: as §4, §5

Entamoeba histolytica = assay: growth inhibition of Entamoeba histolytica in liquid nutrient medium; format: cell-based
Experimental: as §1

Escherichia coli B = assay: MIC, serial dilutions in liquid medium, Escherichia coli B; format: cell-based; conditions: 24 h, 37° C, Nutrient Broth Difco
Experimental: as §4

E.coli 526 = assay: MIC, serial dilutions in liquid medium, E. coli 526 (resistant, NKT I); format: cell-based, Escherichia coli
Experimental: as §4, §5

E.coli K12 = assay: MIC, serial dilutions in liquid medium, E. coli K12; format: cell-based; conditions: Escherichia coli, 24 h, 37° C, Nutrient Broth Difco
Experimental: as §4

Proteus sp.1 = assay: MIC, serial dilutions in liquid medium, Proteus sp.1; format: cell-based; conditions: 24 h, 37° C, Nutrient Broth Difco
Experimental: as §4, §5

Staphylococcus aureus = assay: therapeutic activity in mice experimentally infected with Staphylococcus aureus; format: in vivo; conditions: sc
Experimental: (§6) The therapeutic activity was assessed in mice experimentally infected with Staphylococcus aureus and treated (4 h after infection) with a single dose of the compound by the subcutaneous route.

Euglena gracilis = assay: growth inhibition of Euglena gracilis in liquid nutrient medium; format: cell-based
Experimental: as §1, §2

[4] = test system: bacteria sensitive to the aminosidine; assay: antibacterial activity in vitro and in vivo on bacteria sensitive to aminosidine
Experimental: as §4, §6

[5] = 37° C, Nutrient Broth Difco, read-out: MIC

Row | Structure (SMILES) | Activity (ID 50%), dose inhibiting 50% of growth (Ochromonas malhamensis) | Activity (ID 50%), dose inhibiting 50% of protein synthesis [1] | Activity (ID 50%), dose inhibiting 50% of protein synthesis [2] | LD50 (acute toxicity in mice) [mg/kg] | growth of resistant strains (in words) [3] | effect on growth of algae and protozoa (in words) (algae and protozoa) | MIC (Proteus sp.3) [µg/mL] | Activity (ID 50%), dose inhibiting 50% of growth (Tetrahymena geleei) | MIC (Proteus sp.4) [µg/mL] | Activity (ID 50%), dose inhibiting 50% of growth (Entamoeba histolytica) | MIC (Escherichia coli B) [µg/mL] | MIC (E.coli K12) [µg/mL] | MIC (Proteus sp.1) [µg/mL] | Activity (ID 50%), dose inhibiting 50% of growth (Euglena gracilis) | also measured
1 | NC[C@@H]1O[C@H](O[C@H]2[C@@H](O)[C@H](O[C@@H]3[C@@H](O)[C@H](N)C[C@H](N)[C@H]3O[C@H]3O[C@H](CO)[C@@H](O)[C@H](O)[C@H]3N)O[C@@H]2CO)[C@H](N)[C@@H](O)[C@@H]1O [Aminosidine, reference compound] | 1.56 | 65 | 30 | 700 | completely inactive | strong inhibitor of the organisms tested | > 500 | 12.5 | > 500 | 1 | 6.2 (≈ 10.1 µM) | 500 (≈ 812 µM) | 500 (≈ 812 µM) | 12.5 | MIC (Staphilococcus aureus): 3.1 µg/mL (≈ 5.04 µM); MIC (Proteus sp.2): > 500 µg/mL; MIC (Klebsiella pneumoniae): 1 µg/mL (≈ 1.62 µM); MIC (Proteus sp.5): > 500 µg/mL; MIC (E.coli 526; Escherichia coli, 526, 24 h): > 500 µg/mL; ED50 (Staphylococcus aureus; 4 h, read-out: DT50): 25 mg/kg
2 | NC[C@@H]1O[C@H](O[C@H]2[C@@H](O)[C@H](O[C@@H]3[C@@H](O)[C@H](N)C[C@H](N)[C@H]3O[C@H]3O[C@H](CN)[C@@H](O)[C@H](O)[C@H]3O)O[C@@H]2CO)[C@H](N)[C@@H](O)[C@@H]1O [compound 224] | > 100 | > 500 | 40 | 1000 | prevents the growth of resistant strains | does not affect the growth of algae and protozoa | 125 (≈ 203 µM) | > 100 | 125 (≈ 203 µM) | > 20 | 12.5 (≈ 20.3 µM) | 125 (≈ 203 µM) | 125 (≈ 203 µM) | > 100 | selective inhibition of protein synthesis (in words) ([2]; 7OS in comparison with 8OS ribosomes): selective inhibition of protein synthesis; antibacterial activity compared with aminosidine, resistant strains (in words) ([3]; resistant strains): clearly superior on resistant strains; MIC (Staphilococcus aureus; [5]): 6.2 µg/mL (≈ 10.1 µM); MIC (Proteus sp.2; [5]): 250 µg/mL (≈ 406 µM); MIC (Klebsiella pneumoniae; [5]): 2 µg/mL (≈ 3.25 µM); MIC (Proteus sp.5; [5]): 250 µg/mL (≈ 406 µM); MIC (E.coli 526; Escherichia coli, 526, 24 h, 37° C, Nutrient Broth Difco, resistant strain, read-out: MIC): 100 µg/mL (≈ 162 µM); ED50 (Staphylococcus aureus; mice, single subcutaneous dose 4 h after infection, read-out: DT50 (the source's name)): 50 mg/kg; antibacterial activity in vitro and in vivo (in words) ([4]; bacteria sensitive to the aminosidine): remarkable antibacterial activity in vitro and in vivo; antibacterial activity compared with aminosidine, sensitive strains (in words) ([4]; sensitive strains): of the same order of magnitude of that of aminosidine
